Test results published in US20090170878A1, “MACROCYCLIC COMPOUNDS USEFUL AS BACE INHIBITORS” (priority 2006, published 2009).

Molecular target: T1, Human BACE (Homo sapiens, UniProt P56817)
T1 construct: Recombinant BACE (extracellular domain, expressed in baculovirus and purified using standard methods); made in house; host or cells: baculovirus expression system (insect cells)
Assay: Test 1: Inhibition of Human BACE
Format: biochemical
Details: recombinant BACE extracellular domain, fluorescence-quenched APP-derived peptide substrate, pH 4.5
Protocol: Test 1: Inhibition of Human BACE
Recombinant BACE (extracellular domain, expressed in baculovirus and purified using standard methods) at 0.1 to 10 nM concentrations is incubated with the test compound at various concentrations for 1 hour at room temperature in 10 to 100 mM acetate buffer, pH 4.5, containing 0.1% CHAPS. Synthetic fluorescence-quenched peptide substrate, derived from the sequence of APP and containing a suitable fluorophore-quencher pair, is added to a final concentration of 1 to 5 μM, and the increase in fluorescence is recorded at a suitable excitation/emission wavelength in a microplate spectro-fluorimeter for 5 to 30 minutes in 1-minute intervals. IC50 values are calculated from percentage of inhibition of BACE-activity as a function of the test compound concentration.

T1 sequence (P56817 46-457 limits assumed): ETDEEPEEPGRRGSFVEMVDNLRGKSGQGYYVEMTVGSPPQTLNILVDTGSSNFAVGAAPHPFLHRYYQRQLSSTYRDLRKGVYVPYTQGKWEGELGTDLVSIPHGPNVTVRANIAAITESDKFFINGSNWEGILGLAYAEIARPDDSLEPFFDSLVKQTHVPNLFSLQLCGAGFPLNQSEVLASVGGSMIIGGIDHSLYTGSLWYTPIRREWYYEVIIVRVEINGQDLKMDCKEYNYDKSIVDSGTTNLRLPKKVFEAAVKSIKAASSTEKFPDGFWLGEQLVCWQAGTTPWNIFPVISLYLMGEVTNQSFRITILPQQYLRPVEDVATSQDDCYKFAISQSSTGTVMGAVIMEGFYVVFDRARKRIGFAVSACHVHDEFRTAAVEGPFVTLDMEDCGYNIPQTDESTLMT

CC(C)c1cccc(C2(NC[C@@H](O)[C@@H]3C[C@H](C)CCCCCCCCC(=O)N(C)[C@@H](C)C(=O)N3)CC2)c1 [Example 1, (3S,14R,16S)-16-{(R)-1-Hydroxy-2-[1-(3-isopropyl-phenyl)-cyclopropylamino]-ethyl}-3,4,14-trimethyl-1,4-diaza-cyclohexadecane-2,5-dione]
IC50: 30 nM
